Measurements from patent US9271971B2, “Pyrido[3,4-B]indoles and methods of use” (Medivation Technologies, Inc., priority 2009, dated 2016).

How the values were obtained:
[1] = biological target: T1, human recombinant serotonin (5-Hydroxytryptamine) 5-HT2A receptor (Homo sapiens, UniProt P28223); assay: Serotonin 5-HT2A radioligand binding assay; conditions: [3H]Ketanserin specific binding, read-out: Percent Inhibition of ligand binding, Serotonin (1 μM ligand concentration) 5-HT2A
T1 construct: expressed in transfected cells; host or cells: Chinese hamster ovary (CHO-K1) cells
T1 sequence (P28223 whole entry): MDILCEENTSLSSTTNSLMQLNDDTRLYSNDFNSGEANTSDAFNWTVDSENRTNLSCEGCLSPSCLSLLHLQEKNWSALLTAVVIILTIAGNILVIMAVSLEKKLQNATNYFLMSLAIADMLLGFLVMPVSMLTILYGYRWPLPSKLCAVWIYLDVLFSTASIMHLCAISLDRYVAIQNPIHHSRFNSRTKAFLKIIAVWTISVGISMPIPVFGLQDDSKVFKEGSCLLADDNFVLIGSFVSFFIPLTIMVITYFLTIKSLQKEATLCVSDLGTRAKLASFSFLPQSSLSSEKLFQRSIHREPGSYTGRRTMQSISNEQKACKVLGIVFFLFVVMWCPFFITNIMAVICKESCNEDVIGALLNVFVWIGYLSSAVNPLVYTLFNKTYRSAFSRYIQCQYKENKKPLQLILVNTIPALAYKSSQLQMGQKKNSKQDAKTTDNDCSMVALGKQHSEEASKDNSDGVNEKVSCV
Protocol: To evaluate in radioligand binding assays the activity of compounds of the invention, human recombinant serotonin (5-Hydroxytryptamine) 5-HT2A receptor expressed in Chinese hamster ovary (CHO-K1) cells [Bonhaus, D. W. et al., Br. J. Pharmacol. (1995), 115:622; Saucier, C. et al., J. Neurochem. (1997), 68:1998] in a 50 mM Tris-HCl buffer, pH 7.4, was used. Compounds of the invention were incubated with 0.5 nM [^3H]Ketanserin for 60 min. at 25° C. Non-specific binding was estimated in the presence of 1 μM Mianserin. Receptor proteins were filtered and washed, the filters were then counted to determine [^3H]Ketanserin specifically bound. Compounds were screened at 1 μM or lower, using 1% DMSO as vehicle. Biochemical assay results are presented as the percent inhibition of specific binding in Table 4.

[2] = biological target: T2, human recombinant serotonin (5-Hydroxytryptamine) 5-HT2C receptor (Homo sapiens, UniProt P28335); assay: Serotonin 5-HT2C radioligand binding assay; conditions: [3H]Mesulergine specific binding, read-out: Percent Inhibition of ligand binding, Serotonin (1 μM ligand concentration) 5-HT2C
T2 construct: expressed in transfected cells; host or cells: Chinese hamster ovary (CHO-K1) cells
T2 sequence (P28335 33-458): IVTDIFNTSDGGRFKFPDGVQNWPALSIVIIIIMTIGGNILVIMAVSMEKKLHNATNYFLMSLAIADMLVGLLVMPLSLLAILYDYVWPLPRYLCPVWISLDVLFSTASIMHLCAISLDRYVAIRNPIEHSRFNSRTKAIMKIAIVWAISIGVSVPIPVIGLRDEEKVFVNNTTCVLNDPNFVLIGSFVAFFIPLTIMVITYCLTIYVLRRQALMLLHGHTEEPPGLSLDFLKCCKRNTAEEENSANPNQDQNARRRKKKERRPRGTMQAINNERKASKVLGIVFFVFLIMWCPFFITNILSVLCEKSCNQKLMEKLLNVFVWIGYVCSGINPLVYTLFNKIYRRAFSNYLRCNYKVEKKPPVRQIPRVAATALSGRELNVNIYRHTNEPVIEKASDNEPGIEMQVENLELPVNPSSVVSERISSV
Protocol: To evaluate in radioligand binding assays the activity of compounds of the invention, human recombinant serotonin (5-Hydroxytryptamine) 5-HT2C receptor expressed in Chinese hamster ovary (CHO-K1) cells [Wolf, W. A. et al., J. Neurochem. (1997), 69:1449] in a modified Tris-HCl buffer (50 mM Tris-HCl, pH 7.4, 0.1% Ascorbic Acid, 10 μM Pargyline) was used. Compounds of the invention were incubated with 1 nM [^3H]Mesulergine for 60 min. at 25° C. Non-specific binding was estimated in the presence of 1 μM Mianserin. Receptor proteins were filtered and washed, the filters were then counted to determine [^3H]Mesulergine specifically bound. Compounds were screened at 1 μM or lower, using 1% DMSO as vehicle. Biochemical assay results are presented as the percent inhibition of specific binding in Table 4.

[3] = biological target: T3, human recombinant histamine H2 receptor (Homo sapiens, UniProt P25021); assay: Histamine H2 radioligand binding assay; conditions: [125I]Aminopotentidine specific binding, read-out: Percentage Inhibition, Histamine Binding (1 μM) H2
T3 construct: expressed in transfected cells; host or cells: Chinese hamster ovary (CHO) K1 cells
T3 sequence (P25021 whole entry): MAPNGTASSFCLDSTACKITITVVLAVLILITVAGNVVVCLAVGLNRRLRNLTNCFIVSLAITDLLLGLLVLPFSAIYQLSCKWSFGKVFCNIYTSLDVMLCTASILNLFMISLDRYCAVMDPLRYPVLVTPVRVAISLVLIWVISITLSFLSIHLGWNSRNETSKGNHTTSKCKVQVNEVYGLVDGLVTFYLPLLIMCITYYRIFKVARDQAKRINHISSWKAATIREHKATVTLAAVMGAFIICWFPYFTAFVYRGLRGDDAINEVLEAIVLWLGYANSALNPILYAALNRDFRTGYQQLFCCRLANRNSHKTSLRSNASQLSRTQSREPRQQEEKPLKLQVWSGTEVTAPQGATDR
Protocol: To evaluate in radioligand binding assays the activity of compounds of the invention, human recombinant histamine H2 receptor expressed in Chinese hamster ovary (CHO) K1 cells [Ruat, M., Proc. Natl. Acad. Sci. USA. (1990), 87(5):1658] in a 50 mM Phosphate buffer, pH 7.4 was used. Compounds of the invention were incubated with 0.1 nM [^125I]Aminopotentidine for 120 min. at 25° C. Non-specific binding was estimated in the presence of 3 μM Tiotidine. Receptor proteins were filtered and washed, the filters were then counted to determine [^125I]Aminopotentidine specifically bound. Compounds were screened at 1 μM or lower, using 1% DMSO as vehicle. Biochemical assay results are presented as the percent inhibition of specific binding in Table 2.

[4] = biological target: human recombinant histamine H1 receptor (Homo sapiens, UniProt P35367); assay: Histamine H1 radioligand binding assay; conditions: [3H]Pyrilamine specific binding; for inhibition at 1 µM: read-out: Percentage Inhibition, Histamine Binding (1 μM) H1
Chain of human recombinant histamine H1 receptor (P35367 whole entry): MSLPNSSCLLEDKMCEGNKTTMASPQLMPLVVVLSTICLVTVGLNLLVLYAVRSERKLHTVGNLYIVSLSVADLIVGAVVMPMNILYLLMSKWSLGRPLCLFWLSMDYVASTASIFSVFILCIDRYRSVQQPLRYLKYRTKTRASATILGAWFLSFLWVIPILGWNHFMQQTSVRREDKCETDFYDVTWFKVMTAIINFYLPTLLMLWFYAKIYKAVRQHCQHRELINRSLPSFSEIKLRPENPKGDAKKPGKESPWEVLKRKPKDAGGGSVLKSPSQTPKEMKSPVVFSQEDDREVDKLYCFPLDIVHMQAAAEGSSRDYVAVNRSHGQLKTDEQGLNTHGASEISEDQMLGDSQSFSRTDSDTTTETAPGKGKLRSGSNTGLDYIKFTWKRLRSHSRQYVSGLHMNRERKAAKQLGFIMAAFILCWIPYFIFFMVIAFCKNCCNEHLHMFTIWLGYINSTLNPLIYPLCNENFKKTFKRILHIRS
Protocol: To evaluate in radioligand binding assays the activity of compounds of the invention, human recombinant histamine H1 receptor expressed in Chinese hamster ovary (CHO) cells [De Backer, M. D. et al., Biochem. Biophys. Res. Comm. (1993), 197(3):1601] in a modified Tris-HCl buffer (50 mM Tris-HCl, pH 7.4, 2 mM MgCl2, 100 mM NaCl, 250 mM Sucrose) was used. Compounds of the invention were incubated with 1.2 nM [^3H]Pyrilamine for 180 min. at 25° C. Non-specific binding was estimated in the presence of 1 μM pyrilamine. Receptor proteins were filtered and washed, the filters were then counted to determine [^3H]Pyrilamine specifically bound. Compounds were screened at 1 μM or lower, using 1% DMSO as vehicle. Biochemical assay results are presented as the percent inhibition of specific binding in Table 2.

SMILES	inhibition at 1 µM [1] [%]	inhibition at 1 µM [2] [%]	inhibition at 1 µM [3] [%]	inhibition at 1 µM [4] [%]	Percentage Inhibition, Histamine Binding (1 μM) H1 ([4]; 1 µM) [%]
COc1ccc(/C(C)=C/n2c3c(c4cc(C)ccc42)C2CCN(C3)C2)cc1F (stereo not shown) [Compound 41]	92	97	24	21	
Cc1ccc2c(c1)c1c(n2CC(=O)c2ccc(Cl)cc2)CN2CCC1C2 (stereo not shown) [Compound 29]	56	74	19	56	
Cc1ccc2c(c1)c1c(n2CC(C)(O)c2ccc(F)c(Cl)c2)CN2CCC1C2 (stereo not shown) [Compound 18]	81	87	16	21	
COc1ccc(C(O)Cn2c3c(c4cc(C)ccc42)C2CCN(C3)C2)cc1F (stereo not shown) [Compound 6]	45	43	-5	86	
Cc1ccc2c(c1)c1c(n2CCc2ccccn2)CN2CCC1C2 (stereo not shown) [Compound 11]	10	17	-2	77	
COc1ccc(/C(C)=C/n2c3c(c4cc(C)ccc42)C2CCN(C3)C2)cc1 (stereo not shown) [Compound 45]	98	98	21	26	
Cc1ccc2c(c1)c1c(n2C#Cc2ccc(Cl)cc2)CN2CCC1C2 (stereo not shown) [Compound 35]	87	94	19	0	
COc1ccc(C(O)Cn2c3c(c4cc(C)ccc42)C2CCN(C3)C2)cc1OC (stereo not shown) [Compound 8]	25	12	2	33	
C/C(=C\n1c2c(c3cc(C)ccc31)C1CCN(C2)C1)c1ccccc1F (stereo not shown) [Compound 38]	90	93	7	38	
C/C(=C\n1c2c(c3cc(C)ccc31)C1CCN(C2)C1)c1ccc(F)cc1 (stereo not shown) [Compound 22]	97	96	15	52	58
Cc1ccc(C(C)(O)Cn2c3c(c4cc(C)ccc42)C2CCN(C3)C2)cc1 (stereo not shown) [Compound 20]	102	94	2	21	
Cc1ccc(C(O)Cn2c3c(c4cc(C)ccc42)C2CCN(C3)C2)cc1 (stereo not shown) [Compound 5]	81	53	4	48	
Cc1ccc2c(c1)c1c(n2C(=O)Cc2ccc(Cl)cc2)CN2CCC1C2 (stereo not shown) [Compound 36]	89	89	20	45	
Cc1ccc2c(c1)c1c(n2CC(=O)N2CCC(C)CC2)CN2CCC1C2 (stereo not shown) [Compound 25]	2	15	-4	30	
Cc1ccc2c(c1)c1c(n2CC(=O)N2CCNCC2)CN2CCC1C2 (stereo not shown) [Compound 24]	3	5	-3	5	
